From patent US20260297060A1, “COMPOUNDS FOR THE DEGRADATION OF MUTANT BRAF” (C4 THERAPEUTICS, INC., priority 2023, published 2026)
Where two headings read alike, the source gives them in different places.

Assays:
A375-NRAS^Q61K cells = test: CTGlo Cell Viability Assay, A375-NRAS^Q61K (A375.11) cells, 96 hours; assay type: cell-based, human; settings: A375.11 (A375-NRAS^Q61K) cells
Procedure: Compounds of this invention were tested for their effect on the viability of A375-NRAS^Q61K cells by quantification of ATP using the CellTiter-Glo® 2.0 Cell Viability Assay (Catalog No. G9243, Promega, Madison, WI, USA). This assay produces a luminescent signal in the presence of ATP, which is indicative of metabolically active cells, making the luminescence readout proportional to the number of viable cells.
A375-NRAS^Q61K cells (harboring BRAF homozygous V600E mutation and NRAS homozygous Q61K mutation) were purchased from ATCC (Catalog No. CRL-1619IG-2, Manassas, VA, USA). A375-NRAS^Q61K cells (also referred to here as A375.11) were maintained at 37° C. in an atmosphere of 5% CO2 in Dulbecco's modified Eagle Medium (DMEM) with high glucose (Catalog No. 11965092), supplemented with 10% fetal bovine serum (FBS; Catalog No. 10437036), and 10 mM HEPES (Catalog No. 15630130), all obtained from Thermofisher Scientific (Waltham, MA, USA). Cell culture flasks and 384-well microplates were acquired from VWR (Radnor, PA, USA).
Test compounds were prepared by dissolving neat compounds in DMSO (Catalog No. D8418, Sigma-Aldrich, Inc., St. Louis, MO, USA) to generate 10 mM stock solutions, which were serially diluted (half log) in DMSO to generate an 11-point dose series (1000× final treatment concentration) in a 384-Well Low Dead Volume Microplate (Catalog No. LP-0200, Labcyte, San Jose, CA, USA). Using the Echo 550 Acoustic Liquid Handler (Labcyte), 50 nL of serially diluted compound solutions were dispensed in duplicate to 384-well TC-treated microplates (Catalog No. 3571, Corning, Glendale, CA, USA) and 50 nL of DMSO was dispensed to control wells. A375-NRAS^Q61K cells were resuspended in growth media and added to 384-well plates containing a […] of compounds in duplicate (maximum 10 μM concentration for final treatment) at a density of 250 cells/well in 50 μl. Cells were also plated to a 384-well plate with no compound treatment, to which CellTiter-Glo® reagent was added and luminescence was read right after plating to act as a baseline signal at time of plating (To). Plates treated with compound were then spun briefly, and cells were incubated with compound at 37° C. for 96 hours.
After 96 hours compound treatment, CellTiter-Glo® reagent was added to the cells at 25 μl per well and luminescence was read out on the PHERAstar plate reader (BMG Labtech, Ortenberg, Germany). Cells treated with DMSO only (no test compound treatment) were used as the negative control (N). DMSO treated cells with no CellTiter-Glo® reagent added were used as the background or positive control (P). Viability was determined by subtracting out the average background signal (P) and normalized to the average untreated signal (N) set at 100%.
Data were analyzed with a 4-parameter logistic fit to generate sigmoidal dose-response curves. The half-maximal inhibition of cell growth (GI50) is the concentration at which the fitted curve crosses 50%. The Emax, or maximum effect of each compound, represents the lowest % viability achieved following compound treatment.

BRAF V600E = target: T1, BRAF V600E (Homo sapiens, UniProt P15056+Q96SW2, V600E); test: BRAF V600E HiBiT Degradation Assay; assay type: cell-based
T1 construct: knock-in of the HiBiT tag to the endogenous BRAF V600E locus; host or cells: A375.10 (A375 clonal line, CRISPR HiBiT knock-in at the endogenous BRAF V600E locus)
T1 sequence (P15056 whole entry V600E): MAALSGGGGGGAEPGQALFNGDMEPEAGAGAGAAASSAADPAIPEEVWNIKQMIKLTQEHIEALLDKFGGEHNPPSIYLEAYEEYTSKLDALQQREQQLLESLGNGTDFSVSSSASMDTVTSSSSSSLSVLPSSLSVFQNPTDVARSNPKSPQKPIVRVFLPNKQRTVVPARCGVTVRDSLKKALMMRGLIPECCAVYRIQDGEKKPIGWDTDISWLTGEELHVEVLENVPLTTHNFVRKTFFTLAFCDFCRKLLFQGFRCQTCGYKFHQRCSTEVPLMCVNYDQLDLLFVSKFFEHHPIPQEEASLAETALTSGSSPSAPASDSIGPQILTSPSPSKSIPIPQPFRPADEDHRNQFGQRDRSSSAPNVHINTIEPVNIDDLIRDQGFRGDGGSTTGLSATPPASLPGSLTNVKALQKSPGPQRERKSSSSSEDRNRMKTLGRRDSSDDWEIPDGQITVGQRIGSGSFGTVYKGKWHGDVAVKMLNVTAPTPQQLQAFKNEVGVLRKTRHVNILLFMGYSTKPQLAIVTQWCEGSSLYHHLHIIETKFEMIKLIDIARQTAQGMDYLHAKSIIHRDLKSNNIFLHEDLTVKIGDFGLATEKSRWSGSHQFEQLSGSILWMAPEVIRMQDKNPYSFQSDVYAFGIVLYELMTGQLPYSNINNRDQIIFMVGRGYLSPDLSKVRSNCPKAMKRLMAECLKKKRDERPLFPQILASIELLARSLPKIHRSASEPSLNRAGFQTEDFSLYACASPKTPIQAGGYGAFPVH
T1 sequence (Q96SW2 whole entry): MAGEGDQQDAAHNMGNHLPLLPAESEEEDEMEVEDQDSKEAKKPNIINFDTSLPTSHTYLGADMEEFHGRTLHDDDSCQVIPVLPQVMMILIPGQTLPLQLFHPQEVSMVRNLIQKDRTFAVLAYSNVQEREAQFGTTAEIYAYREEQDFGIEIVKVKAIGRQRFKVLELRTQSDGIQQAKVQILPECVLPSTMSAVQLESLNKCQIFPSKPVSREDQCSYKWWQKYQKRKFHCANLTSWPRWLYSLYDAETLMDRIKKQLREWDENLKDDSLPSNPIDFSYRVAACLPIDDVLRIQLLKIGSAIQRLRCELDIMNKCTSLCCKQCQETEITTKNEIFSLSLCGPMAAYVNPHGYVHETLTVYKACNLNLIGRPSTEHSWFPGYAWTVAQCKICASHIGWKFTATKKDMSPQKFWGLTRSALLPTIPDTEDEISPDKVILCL
T1 sequence (Q16531 whole entry partner): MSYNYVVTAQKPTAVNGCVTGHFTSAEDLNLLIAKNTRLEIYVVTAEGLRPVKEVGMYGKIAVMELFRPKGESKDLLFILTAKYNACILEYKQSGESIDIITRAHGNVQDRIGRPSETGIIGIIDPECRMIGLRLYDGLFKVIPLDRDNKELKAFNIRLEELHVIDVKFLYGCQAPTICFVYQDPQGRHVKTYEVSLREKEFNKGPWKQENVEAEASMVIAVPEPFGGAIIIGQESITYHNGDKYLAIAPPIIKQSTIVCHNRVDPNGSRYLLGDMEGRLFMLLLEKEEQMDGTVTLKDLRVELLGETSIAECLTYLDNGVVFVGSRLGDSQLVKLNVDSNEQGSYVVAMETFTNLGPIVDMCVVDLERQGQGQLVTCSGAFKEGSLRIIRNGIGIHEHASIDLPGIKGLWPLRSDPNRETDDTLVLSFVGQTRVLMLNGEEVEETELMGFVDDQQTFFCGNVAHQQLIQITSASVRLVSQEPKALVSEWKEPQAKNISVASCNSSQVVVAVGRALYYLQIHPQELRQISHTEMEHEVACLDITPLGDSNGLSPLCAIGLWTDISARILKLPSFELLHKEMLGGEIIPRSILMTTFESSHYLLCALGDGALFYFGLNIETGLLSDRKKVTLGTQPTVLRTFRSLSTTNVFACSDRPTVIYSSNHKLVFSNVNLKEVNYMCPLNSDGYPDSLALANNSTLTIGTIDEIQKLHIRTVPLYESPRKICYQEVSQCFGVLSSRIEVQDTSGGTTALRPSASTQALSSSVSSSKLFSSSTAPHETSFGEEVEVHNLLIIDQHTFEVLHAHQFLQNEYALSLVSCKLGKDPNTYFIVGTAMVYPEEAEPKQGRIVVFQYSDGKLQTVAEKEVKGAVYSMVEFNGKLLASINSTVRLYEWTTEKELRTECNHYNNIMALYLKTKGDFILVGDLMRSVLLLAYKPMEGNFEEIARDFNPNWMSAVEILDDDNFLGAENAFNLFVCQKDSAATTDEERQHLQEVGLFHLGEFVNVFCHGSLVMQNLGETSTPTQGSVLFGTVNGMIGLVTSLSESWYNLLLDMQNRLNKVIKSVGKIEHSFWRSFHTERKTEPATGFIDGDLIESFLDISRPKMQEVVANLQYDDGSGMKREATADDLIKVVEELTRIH
Procedure: Compounds of this invention were tested for degradation of mutant BRAF V600E using the HiBiT assay, a luminescence-based assay for quantification of cellular protein levels using the Nano-Glo® HiBiT Lytic Detection System (Catalog No. N3050, Promega, Madison, WI USA). This assay utilizes the HiBiT tag on a protein of interest, which creates a luminescent signal in the presence of a complementing peptide and its substrate, the quantification of which is proportional to the amount of HiBiT-tagged protein in the cell.
The cell line A375, which is homozygous for the BRAF V600E mutation, was purchased from ATCC (Catalog No. CRL-1619, Manassas, VA, USA). A375 cells were engineered to express HiBiT tagged BRAF V600E by CRISPR knock-in of the HiBiT tag to the endogenous BRAF V600E locus, followed by selection of a clonal population containing the appropriate knock-in (referred to here as cell line A375.10). A375.10 cells were maintained at 37° C. in an atmosphere of 5% CO2 in Dulbecco's modified Eagle Medium (DMEM) with high glucose (Catalog No. 11965092), supplemented with 10% fetal bovine serum (FBS; Catalog No. 10437036), and 10 mM HEPES (Catalog No. 15630130), all obtained from Thermofisher Scientific (Waltham, MA, USA). Cell culture flasks and 384-well microplates were acquired from VWR (Radnor, PA, USA).
Test compounds were prepared by dissolving neat compounds in DMSO (Catalog No. D8418, Sigma-Aldrich, Inc., St. Louis, MO, USA) to generate 10 mM stock solutions, which were serially diluted (half log) in DMSO to generate an 11-point dose series (1000× final treatment concentration) in a 384-Well Low Dead Volume Microplate (Catalog No. LP-0200, Labcyte, San Jose, CA, USA). Using the Echo 550 Acoustic Liquid Handler (Labcyte), 30 nL of serially diluted compound solutions were dispensed in duplicate to 384-well TC-treated microplates (Catalog No. 3571, Corning, Glendale, CA, USA) and 30 nL of DMSO was dispensed to control wells. A375.10 cells resuspended in growth media without phenol red (Catalog No. 21063-029, Thermofisher Scientific) were then added to 384-well plates containing the 11-point dose series of compounds in duplicate (maximum 10 μM concentration for final treatment) at a density of 12,000 cells/well in 30 μl. Plates were then spun briefly, and cells were incubated with compound at 37° C. for 2 hours, 6 hours, or 24 hours.
Following the appropriate treatment time, Nano-Glo® HiBiT Lytic Assay reagents were added to the cells per the manufacturer's instructions by adding 30 μl of reagent per well, and the luminescence signal was acquired by plate reader. Cells treated with DMSO only (no test compound treatment) were used as the negative control (N). Media only (no cells added) with Nano-Glo reagent addition was used as the background or positive control (P). The percent response of compound treated samples were calculated by subtracting out the background signal (P) and normalizing to the DMSO control (N) as follows.
% Response=100×(Treated Signal−Average (P))/(Average (N)−Average (P)).
Data were analyzed with a 4-parameter logistic fit to generate sigmoidal dose-response curves. The DC50 is the concentration of compound at which 50% of the cellular BRAF V600E has been degraded. The Emax, or maximum effect of each compound, represents the amount of residual protein remaining in the cell following compound treatment. The IP, or inflection point of the dose-response curve, is the concentration of compound at which 50% of the observed degradation response is achieved.
The experiment was conducted at least once for each compound. If the experiment was conducted multiple times, the data shown in the table is the average of the two or more experiments.

[1] = Homo sapiens, 96 h, lowest % viability achieved
[2] = A375.10 cells, BRAF V600E, 2 hours; inflection point; read-out: HiBiT-Degradation A375.10 BRAF 2 hours IP
[3] = A375.10 cells, BRAF V600E, 2 hours; read-out: HiBiT-Degradation A375.10 BRAF 2 hours DC50
[4] = A375.10 cells, BRAF V600E, 2 hours; residual protein remaining; read-out: HiBiT-Degradation A375.10 BRAF 2 hours Emax
[5] = read-out: HiBiT-Degradation A375.10 BRAF 2 hours DC50; A375.10 cells, BRAF V600E, 2 hours
[6] = read-out: HiBiT-Degradation A375.10 BRAF 2 hours IP; A375.10 cells, BRAF V600E, 2 hours; inflection point

| SMILES | GI50 (A375-NRAS^Q61K cells; Homo sapiens, 96 h) [µM] | Emax (A375-NRAS^Q61K cells; [1]) [%] | DC50 (BRAF V600E; [2]) [nM] | DC50 (BRAF V600E; [3]) [nM] | Emax (BRAF V600E; [4]) [%] | GI50 (A375-NRAS^Q61K cells) [µM] | CTGlo A375.11 96 hours Emax (A375-NRAS^Q61K cells; lowest % viability achieved) | HiBiT-Degradation A375.10 BRAF 2 hours Emax (BRAF V600E) | DC50 (BRAF V600E; [5]) [nM] | DC50 (BRAF V600E; [6]) [nM] |
| --- | --- | --- | --- | --- | --- | --- | --- | --- | --- | --- |
| CCN(C)S(=O)(=O)Nc1ccc(F)c(Oc2ccc3ncn([C@@H]4CCC5(CCN(C6CCC(c7ccc(NC8CCC(=O)NC8=O)cc7F)CC6)CC5)C4)c(=O)c3c2)c1C#N (single isomer, unassigned) [Compound 22] | > 10 | 50 to 90 | < 1000 | < 1000 | 50 to 90 | – | – | – | – | – |
| CCN(C)S(=O)(=O)Nc1ccc(F)c(Oc2ccc3ncc(OC4CC5(CCN(C6CCC(c7cc8c(cc7F)c(N7CCC(=O)NC7=O)nn8C)CC6)CC5)C4)nc3c2)c1C#N (single isomer, unassigned) [Compound 219, 7-[2-cyano-3-[[ethyl(methyl)sulfamoyl]amino]-6-fluoro-phenoxy]-2-[[7-[4-[3-(2,4-dioxohexahydropyrimidin-1-yl)-5-fluoro-1-methyl-indazol-6-yl]cyclohexyl]-7-azaspiro[3.5]nonan-2-yl]oxy]quinoxaline] | – | – | < 1000 | < 1000 | – | > 10 | *** (<=50%) | ** (<90% and >50%) | – | – |
| CCN(C)S(=O)(=O)Nc1ccc(F)c(Oc2ccc3ncn(C4CC5(CC(N6CC[C@H](c7cc8c(cc7F)c(N7CCC(=O)NC7=O)nn8C)C(F)(F)C6)C5)C4)c(=O)c3c2)c1C#N (stereo partly drawn) [Compound 217, 6-[2-cyano-3-[[ethyl(methyl)sulfamoyl]amino]-6-fluoro-phenoxy]-3-[2-[(4R)-4-[3-(2,4-dioxohexahydropyrimidin-1-yl)-5-fluoro-1-methyl-indazol-6-yl]-3,3-difluoro-1-piperidyl]spiro[3.3]heptan-6-yl]-4-oxo-quinazoline] | 1 to 10 | 50 to 90 | < 1000 | < 1000 | < 50 | – | – | – | – | – |
| CCN(C)S(=O)(=O)Nc1ccc(F)c(Oc2ccc3ncn(C4CC5(CCN(C6CC7(C6)CN(c6cc8c(cc6F)c(N6CCC(=O)NC6=O)nn8C)C7)CC5)C4)c(=O)c3c2)c1F (centres unmarked) [Compound 164, 3-[7-[2-[3-(2,4-dioxohexahydropyrimidin-1-yl)-5-fluoro-1-methyl-indazol-6-yl]-2-azaspiro[3.3]heptan-6-yl]-7-azaspiro[3.5]nonan-2-yl]-6-[3-[[ethyl(methyl)sulfamoyl]amino]-2,6-difluoro-phenoxy]-4-oxo-quinazoline] | 1 to 10 | 50 to 90 | < 1000 | < 1000 | 50 to 90 | – | – | – | – | – |
| CO[C@@H]1CCN(S(=O)(=O)Nc2ccc(F)c(Oc3ccc4ncc(C5CC6(CCN(C7CC8(C7)CN(c7cc9c(cc7F)c(N7CCC(=O)NC7=O)nn9C)C8)CC6)C5)nc4c3)c2C#N)C1 (stereo partly drawn) [Compound 278, (3R)-N-[2-cyano-3-[3-[7-[2-[3-(2,4-dioxohexahydropyrimidin-1-yl)-5-fluoro-1-methyl-indazol-6-yl]-2-azaspiro[3.3]heptan-6-yl]-7-azaspiro[3.5]nonan-2-yl]quinoxalin-6-yl]oxy-4-fluoro-phenyl]-3-methoxy-pyrrolidine-1-sulfonamide] | < 1 | < 50 | – | – | < 50 | – | – | – | < 1000 | < 1000 |
| CCN(C)S(=O)(=O)Nc1ccc(F)c(Oc2ccc3ncn(C4CC5(CCN(C6CC7(C6)CN(c6cc8c(cc6F)c(N6CCC(=O)NC6=O)nn8C)C7)C5)C4)c(=O)c3c2)c1C#N (single isomer, unassigned) [Compound 302, 6-[2-cyano-3-[[ethyl(methyl)sulfamoyl]amino]-6-fluoro-phenoxy]-3-[6-[2-[3-(2,4-dioxohexahydropyrimidin-1-yl)-5-fluoro-1-methyl-indazol-6-yl]-2-azaspiro[3.3]heptan-6-yl]-6-azaspiro[3.4]octan-2-yl]-4-oxo-quinazoline] | – | – | – | < 1000 | – | < 1 | – | – | – | – |
| CO[C@H]1CCN(S(=O)(=O)Nc2ccc(F)c(Oc3ccc4ncc(C5CC6(CCN(C7CC8(C7)CN(c7cc9c(cc7F)c(N7CCC(=O)NC7=O)nn9C)C8)CC6)C5)nc4c3)c2C#N)C1 (stereo partly drawn) [Compound 279, (3S)-N-[2-cyano-3-[3-[7-[2-[3-(2,4-dioxohexahydropyrimidin-1-yl)-5-fluoro-1-methyl-indazol-6-yl]-2-azaspiro[3.3]heptan-6-yl]-7-azaspiro[3.5]nonan-2-yl]quinoxalin-6-yl]oxy-4-fluoro-phenyl]-3-methoxy-pyrrolidine-1-sulfonamide] | > 10 | 50 to 90 | – | – | 50 to 90 | – | – | – | < 1000 | < 1000 |
